These are literature values, as cited in US20040048853A1, “Compounds, compositions, and methods” (priority 2002, published 2004).

The structures appear in SMILES notation.

The series deals with A549 cells.

In general, GI50 refers to the concentration giving 50% growth inhibition. In the case of `O=c1[nH]cc(F)c(=O)[nH]1` [5-fluorouracil], the GI50 was 1000 nM.
For the molecule `COc1cccc2c1C(=O)c1c(O)c3c(c(O)c1C2=O)C[C@@](O)(C(=O)CO)C[C@@H]3O[C@H]1C[C@H](N)[C@H](O)[C@H](C)O1` [doxorubicin], the GI50 was 63 nM.
Take `NC(=O)NO` [hydroxyurea]: the GI50 was 500000 nM.
For `CC(=O)O[C@H]1C(=O)[C@@]2(C)[C@H]([C@H](OC(=O)c3ccccc3)[C@]3(O)C[C@H](OC(=O)[C@H](O)[C@@H](NC(=O)c4ccccc4)c4ccccc4)C(C)=C1C3(C)C)[C@]1(OC(C)=O)CO[C@@H]1C[C@@H]2O` [paclitaxel], the GI50 was 4 nM.
